System: Aβ40
Assay: Chronic treatment of APP23 mice: Triton TX-100 soluble Aβ40 in brain
Assay type: in vivo, mouse
Experimental: Frozen mouse forebrains were weighed and homogenized in 9 volumes (w/v) of ice-cold TBS-Complete (20 mM Tris-HCl pH 7.4, 137 mM NaCl, 1× Complete [Protease Inhibitor Cocktail Tablets: 1 836 145, Roche Diagnostics GmbH, Penzberg, Germany]) by sonication (90% duty cycle, output control 5, 40-55 pulses, [Sonifier 450, Branson]). After homogenization several 50 μl aliquots were prepared for analysis and were stored at −80° C.
Human Aβ40 and 42 in mice was determined with the Meso Scale Discovery (MSD) 96-well MULTI-ARRAY human/rodent (6E10) Aβ40/42 Assay (Meso Scale Discovery, Rockville, Md., USA) as described in [RD-2010-00284]. The assay was done according to the manufacturer's instructions except for the calibration curve and the sample preparations. TritonX-100 (TX-100) soluble Aβ40 and 42 was extracted from forebrain with 1% TX-100 using a 50 μl aliquot of each 1:10 forebrain homogenate, mixed with 50 μl 2% TX-100 in TBS complete (20 mM Tris-HCl pH 7.4, 137 mM NaCl, 1× Complete [Protease Inhibitor Cocktail Tablets: 1 836 145, Roche Diagnostics GmbH, Penzberg Germany]) to reach a final concentration of 1% TX-100 and a 1:20 forebrain dilution. The samples were incubated for 15 min on ice and vortexed every 5 min. The samples were ultra-centrifuged (100000×g, 4° C., 15 min) and 50 μl of the clear supernatants were transferred to fresh tubes. The supernatants were further diluted 1:5 in 3% Blocker A solution (from kit) to a final forebrain dilution of 1:100 and applied to the plate.
The calibration curve was prepared in a corresponding dilution of 1% Blocker A solution spiked with synthetic Aβ1-40 peptide (1.56-100 pg/ml) except for non-transgenic mouse brain samples: In this case, the calibration curve was prepared in a correspondingly diluted APP knockout mouse forebrain spiked with synthetic Aβ1-40 peptide (1.56-100 pg/ml). For all samples and standards 25 μl were applied per well. For each determination duplicate wells were done. The mean values from the duplicate wells were used for calculations. The relative units for samples and standards were imported into SOFTmax PRO 4.0 for calculation of standard curves and quantification of samples.
Brain homogenates were extracted with 1% Triton X-100 in buffer and the resulting supernatant was considered to represent soluble forms of APP metabolites. In addition to Aβ40 and 42, we determined the N-terminal APP fragments sAPPα (direct cleavage product of α-secretase) and sAPPβ (Swe) (direct product of BACE1 cleavage). […] Since no change in the APP expression and Aβ generation is known to happen during this age, it is assumed that the increased values in the vehicle group (18-20 mo old) arise from “leakage” out of the Aβ deposits (which increase several fold, see below).

## C[C@@]1(c2nc(NC(=O)c3ncc(C(F)(F)F)cc3Cl)ccc2F)CO[C@@](C)(C(F)(F)F)C(N)=N1 [Compound 1, N-(6-((3R,6R)-5-amino-3,6-dimethyl-6-(trifluoromethyl)-3,6-dihydro-2H-1,4-oxazin-3-yl)-5-fluoropyridin-2-yl)-3-chloro-5-(trifluoromethyl)picolinamide]
0.03 g/kg vs vehicle
  Aβ40 change vs vehicle (TX-100 soluble): −4.6%
0.3 g/kg vs vehicle
  Aβ40 change vs vehicle (TX-100 soluble): −43.7%
High Compound 1 dose
  treatment effects on soluble Aβ species from brain tissue and Aβ40 in CSF: −43.7 to −77%
Low Compound 1 dose
  treatment effects on soluble Aβ species from brain tissue and Aβ40 in CSF: −4.6 to −20%
